From patent EP4600258A1, “KERATIN YK93-6, PREPARATION METHOD THEREFOR, PHARMACEUTICAL COMPOSITION THEREOF, AND USE THEREOF” (INSTITUTE OF MATERIA MEDICA, CHINESE ACADEMY OF MEDICAL …, priority 2022, dated 2024)
Where a name gives a salt, the structure may show the parent alone.

Experiments:
[1] = system: mouse pain model; experiment: Pharmacodynamic test on mouse pain model (acetic acid-induced writhing); format: in vivo, Male Kunming mice; conditions: dose 50mg/kg; writhing within 15 minutes after 1% acetic acid intraperitoneally
[2] = system: EL-4 lymphoma; conditions: single time
Method: Subcutaneous inoculation of EL-4 cell suspension to replicate a mouse lymphoma model: The EL-4 tumor tissue was ground into a suspension using a glass homogenizer, the tumor suspension was aspirated with a syringe, the number of live cells was calculated, the cell concentration was adjusted to 2.0*10^6/ml with physiological saline, and then the suspension was injected into the left armpit of mice with 0.2 ml/mouse. […] On the day of treatment, weight was measured, 20µl of blood was obtained from the orbital blood and the routine blood analysis was performed.
The data from the groups were compared with each other by T.TEST, and P<0.05 was considered as a significant difference.

[3] = 100 mg/kg intraperitoneal, blood routine test, P<0.05

Compound	Number of writhing [1]	leukocytes [2, 3]	lymphocytes [2, 3]	monocytes [2, 3]	neutrophils [2, 3]	Tumor weight ([2]; dose 0.1 g/kg, intraperitoneal) [g]
COc1cccc(C2(O)CCCCC2CN(C)C)c1 (stereo not drawn) [Tramadol Hydrochloride]	0.375±0.74					
O=P1(N(CCCl)CCCl)NCCCO1 (stereo not drawn) [cyclophosphamide, Cyclophosphamide]		significantly reduced	significantly reduced	significantly reduced	significantly reduced	0.12 ± 0.03
